Laboratory results published in patent US20240335462A1, “SULFUR/PHOSPHORUS-CONTAINING ARYL COMPOUND AND APPLICATION THEREOF” (MEDSHINE DISCOVERY INC., priority 2021, published 2024).
Marks after values point to notes of the source that are not given here.

System: IL-23-induced psoriasis-like skin lesions
Assay: Mouse psoriasis-like model induced by IL-23
Type: in vivo, C57BL/6 mice
Parameters: Total score for epidermal hyperplasia of ear pinnae / AUC of total score for epidermal hyperplasia of ear pinnae / Pathological score: Degree of keratinization / Pathological score: Epidermal thickness / Pathological score: Dermal thickness / Pathological score: Inflammatory cell infiltration / Comprehensive pathological score: scale not given here
Conditions: for AUC of total score for epidermal hyperplasia of ear pinnae: Day 0 to Day 8; for Comprehensive pathological score / Pathological score: Degree of keratinization / Pathological score: Dermal thickness / Pathological score: Epidermal thickness / Pathological score: Inflammatory cell infiltration: right ear H&E sections
Source text: The purpose of this experiment was to evaluate the prophylactic and therapeutic effect of the test substance on IL-23-induced psoriasis-like skin lesions in mice by intradermal injection of IL-23 into the ear pinnae in a psoriasis-like skin lesion model.
Female C57BL/6 mice of qualified body weight were randomly divided into groups, with 6 mice per group. The grouping and administration information was as follows. The groups were: blank control group, model group, positive control Ustekinumab (5 mg/kg) group, WX-011A hydrochloride (30, 50 mg/kg) group, and WX-020 sulfate (30, 50 mg/kg) group. Except for the blank control group, the animals in the other groups received an intradermal injection of IL-23 (3 μg/10 μL/mouse/day, QD) in the right ear for 8 consecutive days (Day 0 to Day 7). The blank control group received an intradermal injection of an equal volume of saline solution (10 μL/mouse/day, QD) in the right ear for 8 consecutive days (Day 0 to Day 7). Concurrent with model induction, the solvent or test drug was orally administered twice a day (Bid) at 6-hour intervals for 8 consecutive days (Day 0 to Day 7). The positive control was subcutaneously injected on Day 0 and Day 3 (a total of 2 doses). During the administration period, the body weight of the animals was monitored every two days. On Day 0, Day 2, Day 4, Day 6 (all before IL-23 injection), and Day 8, the thickness of the right ear of the mice was measured, and the appearance of the ear pinnae was observed and scored.
The compounds were all prepared into a clear solution with 10% DMSO+[…] as a solvent for PO (oral gavage) administration. Administration volume parameters: 10 mL/kg based on the body weight of the mice.
After grouping, IL-23 (3 μg/10 μL/mouse/day, QD) was injected intradermally into the right ears of the mice for 8 consecutive days (Day 0 to Day 7). Measurements of the thickness of the right ear and observations and scoring of the appearance of the ear pinnae were performed on Day 0, Day 2, Day 4, Day 6 (all before IL-23 injection), and Day 8. At the end of the experiment (Day 8), the left ear tissues of the mice from groups G4 to G10 (3 animals per group at each time point) were collected. The right ear, which had been modeled, was excised, an 8 mm ear punch was taken along the edge of the pinna, and its weight was measured. The excised right ear tissues were fixed in formalin for histopathological examination (H&E staining).
Concurrent with model induction, corresponding drug treatment was given for administration. Except for the positive control drug (Ustekinumab), which was subcutaneously injected on Day 0 and Day 3 (once a day), control and test drugs for each dose group were orally administered by gavage twice a day at 6-hour intervals for 8 consecutive days (Day 0 to Day 7).
The pathological scoring of mouse ear tissue sections was conducted according to the criteria in Table 33.
The experimental data are represented as Mean±SD; statistical analysis was performed using IBM SPSS Statistics 21, with p<0.05 considered to indicate a statistically significant difference between the two groups. The effect of the test substance on the thickness of mouse ears in the IL-23 induced mouse pinna epidermal hyperplasia model is shown in Table 34. The effect of the test substance on the total score and AUC for […] induced mouse pinna epidermal hyperplasia is shown in Table 35.

CNC(=O)c1cnc(NC(=O)C2CC2)cc1Nc1cccc(-c2ccc(S(=O)(=O)C(C)C)cn2)c1OC.O=S(=O)(O)O [Sulfate of WX-020]
Ear thickness (mm) (30 mg/kg PO BID, Day 0): 0.197 mm
Total score for epidermal hyperplasia of ear pinnae (30 mg/kg PO BID, Day 0): 0.00
AUC of total score for epidermal hyperplasia of ear pinnae (30 mg/kg PO BID): 7.67
Ear thickness (mm) (30 mg/kg PO BID, Day 2): 0.283 mm
Total score for epidermal hyperplasia of ear pinnae (30 mg/kg PO BID, Day 2): 0.00
Ear thickness (mm) (30 mg/kg PO BID, Day 4): 0.311 mm
Total score for epidermal hyperplasia of ear pinnae (30 mg/kg PO BID, Day 4): 0.50*
Ear thickness (mm) (30 mg/kg PO BID, Day 6): 0.351** mm
Total score for epidermal hyperplasia of ear pinnae (30 mg/kg PO BID, Day 6): 2.5
Ear thickness (mm) (30 mg/kg PO BID, Day 8): 0.343^p=0.082 mm
Total score for epidermal hyperplasia of ear pinnae (30 mg/kg PO BID, Day 8): 1.67*
Comprehensive pathological score (30 mg/kg PO BID): 4.17**
Pathological score: Degree of keratinization (30 mg/kg PO BID): 0.83**
Pathological score: Dermal thickness (30 mg/kg PO BID): 1.33
Pathological score: Epidermal thickness (30 mg/kg PO BID): 0.83**
Pathological score: Inflammatory cell infiltration (30 mg/kg PO BID): 1.17**
Ear thickness (mm) (50 mg/kg PO BID, Day 0): 0.195 mm
Total score for epidermal hyperplasia of ear pinnae (50 mg/kg PO BID, Day 0): 0.00
AUC of total score for epidermal hyperplasia of ear pinnae (50 mg/kg PO BID): 5.00*
Ear thickness (mm) (50 mg/kg PO BID, Day 2): 0.289 mm
Total score for epidermal hyperplasia of ear pinnae (50 mg/kg PO BID, Day 2): 0.00
Ear thickness (mm) (50 mg/kg PO BID, Day 4): 0.303* mm
Total score for epidermal hyperplasia of ear pinnae (50 mg/kg PO BID, Day 4): 0.50*
Ear thickness (mm) (50 mg/kg PO BID, Day 6): 0.311** mm
Total score for epidermal hyperplasia of ear pinnae (50 mg/kg PO BID, Day 6): 1.33*
Ear thickness (mm) (50 mg/kg PO BID, Day 8): 0.317** mm
Total score for epidermal hyperplasia of ear pinnae (50 mg/kg PO BID, Day 8): 1.33**
Comprehensive pathological score (50 mg/kg PO BID): 2.17**
Pathological score: Degree of keratinization (50 mg/kg PO BID): 0.33**
Pathological score: Dermal thickness (50 mg/kg PO BID): 0.50
Pathological score: Epidermal thickness (50 mg/kg PO BID): 0.67**
Pathological score: Inflammatory cell infiltration (50 mg/kg PO BID): 0.67**

CNC(=O)c1nnc(NC(=O)C2CC2)cc1Nc1cccc(-c2ncc(S(=N)(=O)C(C)C)cn2)c1OC.Cl (single isomer, unassigned) [Hydrochloride of WX-011A]
Ear thickness (mm) (30 mg/kg PO BID, Day 0): 0.199 mm
Total score for epidermal hyperplasia of ear pinnae (30 mg/kg PO BID, Day 0): 0.00
AUC of total score for epidermal hyperplasia of ear pinnae (30 mg/kg PO BID): 3.17**
Ear thickness (mm) (30 mg/kg PO BID, Day 2): 0.274* mm
Total score for epidermal hyperplasia of ear pinnae (30 mg/kg PO BID, Day 2): 0.00
Ear thickness (mm) (30 mg/kg PO BID, Day 4): 0.299* mm
Total score for epidermal hyperplasia of ear pinnae (30 mg/kg PO BID, Day 4): 0.33*
Ear thickness (mm) (30 mg/kg PO BID, Day 6): 0.297** mm
Total score for epidermal hyperplasia of ear pinnae (30 mg/kg PO BID, Day 6): 0.67**
Ear thickness (mm) (30 mg/kg PO BID, Day 8): 0.301** mm
Total score for epidermal hyperplasia of ear pinnae (30 mg/kg PO BID, Day 8): 1.17**
Comprehensive pathological score (30 mg/kg PO BID): 1.17**
Pathological score: Degree of keratinization (30 mg/kg PO BID): 0.17**
Pathological score: Dermal thickness (30 mg/kg PO BID): 0.17
Pathological score: Epidermal thickness (30 mg/kg PO BID): 0.67**
Pathological score: Inflammatory cell infiltration (30 mg/kg PO BID): 0.17**
Ear thickness (mm) (50 mg/kg PO BID, Day 0): 0.197 mm
Total score for epidermal hyperplasia of ear pinnae (50 mg/kg PO BID, Day 0): 0.00
AUC of total score for epidermal hyperplasia of ear pinnae (50 mg/kg PO BID): 2.67**
Ear thickness (mm) (50 mg/kg PO BID, Day 2): 0.279^p=0.081 mm
Total score for epidermal hyperplasia of ear pinnae (50 mg/kg PO BID, Day 2): 0.00
Ear thickness (mm) (50 mg/kg PO BID, Day 4): 0.291 * mm
Total score for epidermal hyperplasia of ear pinnae (50 mg/kg PO BID, Day 4): 0.17**
Ear thickness (mm) (50 mg/kg PO BID, Day 6): 0.299** mm
Total score for epidermal hyperplasia of ear pinnae (50 mg/kg PO BID, Day 6): 0.67**
Ear thickness (mm) (50 mg/kg PO BID, Day 8): 0.300** mm
Total score for epidermal hyperplasia of ear pinnae (50 mg/kg PO BID, Day 8): 1.00*
Comprehensive pathological score (50 mg/kg PO BID): 1.83**
Pathological score: Degree of keratinization (50 mg/kg PO BID): 0.33**
Pathological score: Dermal thickness (50 mg/kg PO BID): 0.50
Pathological score: Epidermal thickness (50 mg/kg PO BID): 0.50**
Pathological score: Inflammatory cell infiltration (50 mg/kg PO BID): 0.50**
